For data set [1], the system named is Mus musculus. Description: Anticonvulsant activity in Swiss albino Mus musculus (mouse) assessed as protection against PTZ-induced seizure at 1.5 mmol/kg, ip administered 30 min prior to PTZ-challenge measured up to 30 min relative to control. The class given is functional.
Data set [2] can be described thus: Toxicity against Swiss albino Mus musculus (mouse) assessed as mortality at 1.5 mmol/kg, ip. It counts as organism-based. Conditions: in vivo, read-out: Activity.
Data set [3] concerns Mus musculus. Description: Anticonvulsant activity in Swiss albino Mus musculus (mouse) assessed as protection against maximal electric shock-induced seizure at 1.38 mmol/kg, ip administered 30 min prior to maximal electric shock-challenge measured up to 30 min relative to control. It counts as functional.
The test system of data set [4] is Mus musculus. Description: Anticonvulsant activity in Swiss albino Mus musculus (mouse) assessed as protection against PTZ-induced seizure at 1.38 mmol/kg, ip administered 30 min prior to PTZ-challenge measured up to 30 min relative to control. The class given is functional.
For data set [5], the system named is Mus musculus. Briefly: Anticonvulsant activity in Swiss albino Mus musculus (mouse) assessed as protection against bicuculline-induced seizure at 1.38 mmol/kg, ip administered 30 min prior to bicuculline-challenge measured up to 30 min relative to control. The class given is functional.
Data set [6] relates to Mus musculus. Briefly: Anticonvulsant activity in Swiss albino Mus musculus (mouse) assessed as protection against picrotoxin-induced seizure at 1.38 mmol/kg, ip administered 30 min prior to picrotoxin-challenge measured up to 30 min relative to control. It counts as functional.
The species entered for data set [7] is Mus musculus. Briefly: Ratio of sodium valporate ED50 to compound ED50 in Swiss albino Mus musculus (mouse) PTZ-seizure model. The class given is functional.
A short description of data set [8]: Neurotoxicity against ip dosed Swiss albino Mus musculus (mouse) measured after 15 to 25 min by chimney test. It counts as toxicity, organism-based. Conditions: in vivo.
Data set [9] has as its system Mus musculus. Briefly: Neurotoxicity against Swiss albino Mus musculus (mouse) at 0.18 mmol/kg, ip measured after 15 to 25 min by chimney test. The class given is toxicity, organism-based. As to conditions: in vivo.
Data set [10] concerns Mus musculus. Description: Neurotoxicity against Swiss albino Mus musculus (mouse) at 0.37 mmol/kg, ip measured after 15 to 25 min by chimney test. It counts as toxicity, organism-based. As to conditions: in vivo.
A short description of data set [11]: Therapeutic index, ratio of LD50 to ED50 in Swiss albino Mus musculus (mouse). It counts as organism-based. Conditions: in vivo, read-out: Ratio LD50/ED50.
Data set [12] has as its system Mus musculus. Briefly: Neurotoxicity against Swiss albino Mus musculus (mouse) at 0.75 mmol/kg, ip measured after 15 to 25 min by chimney test. Conditions: in vivo. The class given is toxicity, organism-based.
Data set [13] deals with Mus musculus. Description: Anticonvulsant activity in Swiss albino Mus musculus (mouse) assessed as protection against picrotoxin-induced seizure at 0.75 mmol/kg, i.p. administered 30 min prior to picrotoxin-challenge measured up to 30 min relative to control. It counts as functional.
For data set [14], the system named is Mus musculus. Description: Anticonvulsant activity in Swiss albino Mus musculus (mouse) assessed as protection against bicuculline-induced seizure at 0.75 mmol/kg, i.p. administered 30 min prior to bicuculline-challenge measured up to 30 min relative to control. The class given is functional.
The subject of data set [15] is Mus musculus. Briefly: Anticonvulsant activity in Swiss albino Mus musculus (mouse) assessed as protection against bicuculline-induced seizure at 0.18 mmol/kg, i.p. administered 30 min prior to bicuculline-challenge measured up to 30 min relative to control. It counts as functional.
For data set [16], the system named is Mus musculus. Description: Anticonvulsant activity in Swiss albino Mus musculus (mouse) assessed as protection against maximal electric shock-induced seizure at 1.5 mmol/kg, ip administered 30 min prior to maximal electric shock-challenge measured up to 30 min relative to control. The class given is functional.
Data set [17] in a line: Toxicity against i.p. dosed Swiss albino Mus musculus (mouse) by Sperman-Karber method. Conditions: in vivo, ip. The class given is organism-based.
Data set [18] concerns Mus musculus. Description: Anticonvulsant activity in Swiss albino Mus musculus (mouse) assessed as protection against PTZ-induced seizure at 0.37 mmol/kg, ip administered 30 min prior to PTZ-challenge measured up to 30 min relative to control. The class given is functional.
For data set [19], the system named is Mus musculus. Briefly: Anticonvulsant activity in Swiss albino Mus musculus (mouse) assessed as protection against bicuculline-induced seizure at 1.5 mmol/kg, ip administered 30 min prior to bicuculline-challenge measured up to 30 min relative to control. The class given is functional.
Data set [20] concerns Mus musculus. Description: Anticonvulsant activity in Swiss albino Mus musculus (mouse) assessed as protection against bicuculline-induced seizure at 0.37 mmol/kg, i.p. administered 30 min prior to bicuculline-challenge measured up to 30 min relative to control. The class given is functional.
Data set [21] relates to Mus musculus. Description: Anticonvulsant activity in Swiss albino Mus musculus (mouse) assessed as protection against maximal electric shock-induced seizure at 0.75 mmol/kg, i.p. administered 30 min prior to maximal electric shock-challenge measured up to 30 min relative to control. It counts as functional.
Data set [22] deals with Mus musculus. Briefly: Anticonvulsant activity in ip dosed Swiss albino Mus musculus (mouse) assessed as protection against PTZ-induced seizure administered 30 min prior to PTZ-challenge measured up to 30 min. The class given is functional.
The subject of data set [23] is Mus musculus. Description: Neurotoxicity against Swiss albino Mus musculus (mouse) at 1.5 mmol/kg, ip measured after 15 to 25 min by chimney test. The class given is toxicity, organism-based. As to conditions: in vivo.
Data set [24] relates to Mus musculus. Briefly: Anticonvulsant activity in Swiss albino Mus musculus (mouse) assessed as protection against picrotoxin-induced seizure at 0.37 mmol/kg, i.p. administered 30 min prior to picrotoxin-challenge measured up to 30 min relative to control. It counts as functional.
For data set [25], the system named is Mus musculus. Description: Anticonvulsant activity in Swiss albino Mus musculus (mouse) assessed as protection against maximal electric shock-induced seizure at 0.18 mmol/kg, i.p. administered 30 min prior to maximal electric shock-challenge measured up to 30 min relative to control. The class given is functional.
The subject of data set [26] is Mus musculus. Briefly: Anticonvulsant activity in Swiss albino Mus musculus (mouse) assessed as protection against picrotoxin-induced seizure at 0.18 mmol/kg, i.p. administered 30 min prior to picrotoxin-challenge measured up to 30 min relative to control. The class given is functional.
For data set [27], the system named is Mus musculus. Description: Anticonvulsant activity in Swiss albino Mus musculus (mouse) assessed as protection against PTZ-induced seizure at 0.75 mmol/kg, ip administered 30 min prior to PTZ-challenge measured up to 30 min relative to control. The class given is functional.
The species entered for data set [28] is Mus musculus. Description: Protective index, ratio of TD50 for to ED50 in Swiss albino Mus musculus (mouse).
Data set [29] relates to Mus musculus. Briefly: Anticonvulsant activity in Swiss albino Mus musculus (mouse) assessed as protection against PTZ-induced seizure at 0.18 mmol/kg, ip administered 30 min prior to PTZ-challenge measured up to 30 min relative to control. The class given is functional.
In data set [30] the test system is Mus musculus. Briefly: Anticonvulsant activity in Swiss albino Mus musculus (mouse) assessed as protection against maximal electric shock-induced seizure at 0.37 mmol/kg, i.p. administered 30 min prior to maximal electric shock-challenge measured up to 30 min relative to control. It counts as functional.

SMILES strings stand for the structures. Active and inactive are the calls of the source. The rule behind the calls is not given here.

Take `Cc1ccc2nc(SCC(=O)NN)n(Cc3ccccc3)c(=O)c2c1`: in the data set with Mus musculus [1], the result was inactive. For the same molecule, the mortality in data set [2] is 100%.
`CCCC(CCC)C(=O)[O-].[Na+]` [VALPROATE SODIUM]: the Activity with Mus musculus [3], in the data set on Mus musculus [4], with Mus musculus [5] and in the data set with Mus musculus [6] was 100% in each case.
With `O=C1c2ccccc2C(=O)N1n1c(-c2cccs2)nc2ccc(I)cc2c1=O`, in the data set filed under Mus musculus [7], the “Ratio ED50” value worked out at 2. The same molecule yielded a TD50 in [8] of 447 mg/kg. In addition, the Activity with Mus musculus [9] amounted to 0%; in the data set with Mus musculus [10], 30%; in the data set on Mus musculus [12], 30%; with Mus musculus [13] it was 50%; in the data set with Mus musculus [14], 40%; with Mus musculus [15], 0%. Moreover, the Activity with Mus musculus [16] is given as 30%; with Mus musculus [18], 30%; in the data set on Mus musculus [19] it was 100%; with Mus musculus [20] it was 10%; with Mus musculus [21], 0%; in the data set on Mus musculus [23], 80%. Also, the Activity with Mus musculus [1] came to 100%; in the data set with Mus musculus [24], 50%; in the data set on Mus musculus [25] it was 0%; in the data set with Mus musculus [26], 20%; with Mus musculus [27], 70%; in the data set on Mus musculus [29], 0%. Besides, the Activity in the data set on Mus musculus [30] was 0%. Besides, the selectivity ratio in data set [11] was determined as 5.5. The LD50 in data set [17] was determined as 1380 mg/kg. For the same molecule, the ED50 with Mus musculus [22] is 251 mg/kg. Further, the “Ratio TD50/ED50” value in the data set listed under Mus musculus [28] stood at 1.78.
Take `Cc1ccc2nc(SCC(=O)NN)n(-c3ccccc3)c(=O)c2c1`: in the data set with Mus musculus [1], the result was inactive. For the same molecule, the mortality in data set [2] came to 100%.
`Cc1ccc2nc(SCC(=O)NN3C(=O)c4c(Cl)c(Cl)c(Cl)c(Cl)c4C3=O)n(-c3ccccc3)c(=O)c2c1` yielded a TD50 in data set [8] of 562 mg/kg. Also, the Activity was 0% with Mus musculus [9]; 0% with Mus musculus [10]; 30% in the data set with Mus musculus [12]; 70% in the data set with Mus musculus [14]; 0% in the data set on Mus musculus [15]; 70% with Mus musculus [16]. For the same molecule, the Activity was 30% in the data set on Mus musculus [18]; 100% with Mus musculus [19]; 10% in the data set on Mus musculus [20]; 10% in the data set with Mus musculus [21]; 100% in the data set with Mus musculus [23]; 70% in the data set on Mus musculus [1]. Moreover, the Activity in the data set with Mus musculus [24] is reported as 20%; in the data set on Mus musculus [25] it was 0%; with Mus musculus [27], 50%; with Mus musculus [29], 0%; in the data set on Mus musculus [30], 0%. In addition, the selectivity ratio in [11] was 2.82. In [17], this molecule displayed an LD50 of 1290 mg/kg. For the same molecule, the ED50 with Mus musculus [22] amounted to 457 mg/kg. Also, the “Ratio TD50/ED50” value in the data set listed under Mus musculus [28] is reported as 1.22.

For orientation: TD50 means the dose at which the toxic effect under study appears in half of the subjects. In general, LD50 refers to the dose expected to kill half of the subjects tested. Low values mean greater toxicity, high ones lower toxicity. What is called ED50 is the dose that gives a 50% effect, or the effect in half of the subjects.
